≈ marks a conversion by molar mass, not a printed value. Calls of active or inactive are those of the source. The rule behind the calls is not given here.
Legend:
[1] = Inhibition of pentosidine-type advanced glycation end products formation using bovine serum albumin after 24 hrs by microtiter plate assay; assay type: functional
[2] = Inhibition of vesperlysine-type advanced glycation end products formation using bovine serum albumin after 24 hrs by microtiter plate assay; assay type: functional
HUVEC [3] = assay: Antiinflammatory activity in HUVEC assessed as inhibition of HLA-I expression at 10 uM after 1 hr by flow cytometry analysis; assay type: functional, cell-based; settings: Homo sapiens
HUVEC [4] = assay: Antiinflammatory activity in HUVEC assessed as inhibition of TNFalpha-induced VCAM1 expression after 1 hr by flow cytometry analysis; assay type: functional, cell-based; settings: Homo sapiens
HUVEC [5] = assay: Antiinflammatory activity in HUVEC assessed as inhibition of TNFalpha-induced VCAM1 expression at 10 uM after 1 hr by flow cytometry analysis; assay type: functional; settings: Homo sapiens
HUVEC [6] = assay: Antiinflammatory activity in HUVEC assessed as inhibition of TNFalpha-induced ICAM1 expression at 10 uM after 1 hr by flow cytometry analysis; assay type: functional; settings: Homo sapiens
HUVEC [7] = assay: Induction of E-selectin expression in HUVEC after 1 hr by flow cytometry analysis; assay type: cell-based; settings: human
HUVEC [8] = assay: Induction of ICAM1 expression in HUVEC after 1 hr by flow cytometry analysis; assay type: cell-based; settings: human
HUVEC [9] = assay: Antiinflammatory activity in HUVEC assessed as inhibition of MICA expression at 10 uM after 1 hr by flow cytometry analysis; assay type: functional, cell-based; settings: Homo sapiens
HUVEC [10] = assay: Cytotoxicity against TNFalpha-stimulated HUVEC at 10 uM after 6 hrs by MTT assay; assay type: cell-based; settings: human
HUVEC [11] = assay: Antiinflammatory activity in HUVEC assessed as inhibition of IFNgamma-induced HLA-II expression at 10 uM after 1 hr by flow cytometry analysis; assay type: functional; settings: Homo sapiens
HUVEC [12] = assay: Induction of VCAM1 expression in HUVEC after 1 hr by ELISA; assay type: cell-based; settings: human
HUVEC [13] = assay: Antiinflammatory activity in HUVEC assessed as inhibition of IFNgamma-induced HLA-E expression at 10 uM after 1 hr by flow cytometry analysis; assay type: functional; settings: Homo sapiens
HUVEC [14] = assay: Antiinflammatory activity in HUVEC assessed as inhibition of HLA-E expression at 10 uM after 1 hr by flow cytometry analysis; assay type: functional, cell-based; settings: Homo sapiens
HUVEC [15] = assay: Antiinflammatory activity in HUVEC assessed as inhibition of TNFalpha-induced E-selectin expression at 10 uM after 1 hr by flow cytometry analysis; assay type: functional, cell-based; settings: Homo sapiens

Row | Structure (SMILES) | IC50 [1] [µg/mL] | IC50 [2] [µg/mL] | inhibition (HUVEC [3]) | IC50 (HUVEC [4]) [µM] | inhibition at 10 µM (HUVEC [5]) [%] | inhibition at 10 µM (HUVEC [6]) [%] | Activity (HUVEC [7]) | Activity (HUVEC [8]) | inhibition (HUVEC [9]) | Activity (HUVEC [10]) | inhibition at 10 µM (HUVEC [11]) [%] | Activity (HUVEC [12]) | inhibition at 10 µM (HUVEC [13]) [%] | inhibition (HUVEC [14]) | inhibition (HUVEC [15])
1 | N=C(N)NN [PIMAGEDINE] | 150 (≈ 2.02 mM) | 700 (≈ 9.45 mM) |  |  |  |  |  |  |  |  |  |  |  |  | 
2 | CC(C)=CCC1(CC=C(C)C)C(=O)c2c(-c3ccccc3)cc(=O)oc2C(C(=O)C(C)C)=C1O |  |  | inactive | 10.2 | ≤ 52 | ≤ 23 | Non-toxic | Non-toxic | Active | Non-toxic | ≤ 95 | Non-toxic | ≤ 95 | Active | inactive
